According to patent publication EP0423032A2, “Process for the preparation of isoxazolyl and isothiazolyl imidazobenzodiazepines, new derivatives thus obtained, their use as medicaments and compositions containing them” (ROUSSEL-UCLAF, priority 1989, dated 1991):

Test system: récepteurs des benzodiazépines
Test: In vivo measurement of binding to benzodiazepine receptors, method of Goeders and Kuhar
Excerpt: La mesure in vivo de la liaison aux récepteurs des benzodiazépines a été effectuée selon la méthode décrite par Goeders N.E. et Kuhar M.J. Life, Sciences (1985) 37, 345. TABLEAU II

Cc1cc(-c2ncn3c2CN(C)C(=O)c2ccccc2-3)on1 [Exemple 7, 5,6-dihydro 5-méthyl 6-oxo 3-(3-méthylisoxazol-5-yl) 4H-imidazo [1,5-a] [1,4]-benzodiazépine]
liaison in vivo DE 50 mg/kg IP: 0,62 mg/kg

CN1Cc2c(-c3cc(C4CC4)no3)ncn2-c2ccccc2C1=O [Exemple 5, 3-(3-cyclopropylisoxazol-5-yl) 5,6-dihydro 5-méthyl 6-oxo-4H-imidazo [1,5-a] [1,4]-benzodiazépine]
liaison in vivo DE 50 mg/kg IP: 2,0 mg/kg

CCc1cc(-c2ncn3c2CN(C)C(=O)c2ccccc2-3)on1 [Exemple 8, 5,6-dihydro 5-méthyl 6-oxo 3-(3-éthylisoxazol-5-yl) 4H-imidazo [1,5-a] [1,4]-benzodiazépine]
liaison in vivo DE 50 mg/kg IP: > 3,0 mg/kg
